In patent US20120220600A1, “N-Oxide of 3-(2,6-dichloro-3,5-dimethoxy-phenyl) -1--1-methyl-urea” (priority 2009, published 2012):
Converted amounts (≈) assume the structure as drawn.

Columns and labels:
[1] = In vitro metabolic stability in human liver microsomes; format: in vitro ADME; settings: for CLint Rank: 1 μM
Method: (§1) The metabolism of drugs occurs mainly in the liver, which contains a wide variety of metabolic enzymes at concentrations higher than those observed in other organs. Metabolic stability or clearance (CL), particularly hepatic clearance (CLh), is a factor in determining drug concentration in blood. Generally, the higher the metabolic stability of a compound is, the lower the clearance of the compound.
(§2) The metabolic stability of each of Compounds 1 and 2 were determined at a concentration of 1 μM in mouse, rat, dog, monkey and human hepatic microsomal preparations. The compound tested, microsomal protein, and co-factors were combined, in duplicate, and incubated under appropriate conditions. Aliquots were removed at 0, 10 and 30 min, centrifuged and the supernatants analyzed by LC/MS/MS. Based on the percentage of the test compound remaining relative to the 0 min time point, the in vitro elimination rate constant, in vitro half-life (t1/2) and in vitro intrinsic clearance (CLint) parameters were calculate which allow for predicting the CLh values.

[2] = Ionization constants (pKa1/pKa2); format: physicochemical; settings: ionization constant for acidity
Text: (§3) Certain physicochemical properties of the compounds, as measured, are provided below: […]

[3] = In vitro metabolic stability in dog liver microsomes; format: in vitro ADME; settings: for microsomal CLint at 1 μM: dog, liver microsomes
Method: as §1, §2

[4] = In vitro metabolic stability in mouse liver microsomes; format: in vitro ADME; settings: for microsomal CLint at 1 μM: mouse, liver microsomes
Method: as §1, §2

[5] = In vitro metabolic stability in monkey liver microsomes; format: in vitro ADME; settings: for microsomal CLint at 1 μM: monkey, liver microsomes
Method: as §1, §2

[6] = In vitro metabolic stability in rat liver microsomes; format: in vitro ADME; settings: for microsomal CLint at 1 μM: rat, liver microsomes
Method: as §1, §2

hERG channels = target: T1, hERG channels (Homo sapiens, UniProt Q12809); test: hERG radioligand binding assay ([3H]dofetilide competition); settings: [3H]dofetilide binding, HEK293 cell membranes stably transfected with hERG
T1 construct: expressed in transfected cells; host or cells: HEK293 (stably transfected), membrane preparation
Method: The ability of Compounds 1 and 2 to inhibit the hERG (potassium channel) activity was tested using a radioligand binding assay in which test compounds competed for [^3H]dofetilide binding to a membrane preparation of HEK293 cell membranes stably transfected with hERG channels.

Caco-2 cell monolayers = test: Permeability across Caco-2 cell monolayers; format: in vitro ADME, human; settings: for Mechanism: Caco-2, based on B-A/A-B and clogP; for Permeability Ranking: Caco-2, based on Papp A-B
Method: (§4) The permeability of Compounds 1 and 2 across the intestinal barrier and the involvement of drug efflux transporters such as P-glycoprotein (P-gp, MDR-1) were assessed in vitro using the Caco-2 cell line. […] Caco-2 cells were seeded on PET (polyethylene terephthalate) filters in a 96 well format and cultured for 18-25 days to develop monolayers. Test compound solutions (10 μM in transport buffer) were added to either the apical (A) or basolateral (B) side of the Caco-2 cell monolayer to measure the membrane permeability from the A to B compartments [Papp(A-B)] or from the B to A compartments [Papp(B-A]. The assay was carried out in HBSS (Hank's Balanced Salts) buffer, pH 7.4 (for both sides) for 120 min at 37° C. Samples were taken from apical or basolateral compartments at scheduled times (0 min and 120 min) and quantified by LC/MS/MS. The results are presented in Table 4.

[7] = Permeability across Caco-2 cell monolayers; format: in vitro ADME, human; settings: human, Caco-2, 10 μM, pH 7.4, 120 min; for Papp A→B at 120 min, 10 μM / Papp B→A at 120 min, 10 μM: 37° C.; for Papp A→B at 120 min, 10 μM: apical to basolateral; for Papp B→A at 120 min, 10 μM: basolateral to apical; for efflux ratio at 120 min, 10 μM: read-out: Papp B-A/A-B
Method: as §4

[8] = Solubility in buffer (pH 1); format: physicochemical; settings: pH 1, aqueous buffer
Text: as §3

T1 sequence (Q12809 whole entry): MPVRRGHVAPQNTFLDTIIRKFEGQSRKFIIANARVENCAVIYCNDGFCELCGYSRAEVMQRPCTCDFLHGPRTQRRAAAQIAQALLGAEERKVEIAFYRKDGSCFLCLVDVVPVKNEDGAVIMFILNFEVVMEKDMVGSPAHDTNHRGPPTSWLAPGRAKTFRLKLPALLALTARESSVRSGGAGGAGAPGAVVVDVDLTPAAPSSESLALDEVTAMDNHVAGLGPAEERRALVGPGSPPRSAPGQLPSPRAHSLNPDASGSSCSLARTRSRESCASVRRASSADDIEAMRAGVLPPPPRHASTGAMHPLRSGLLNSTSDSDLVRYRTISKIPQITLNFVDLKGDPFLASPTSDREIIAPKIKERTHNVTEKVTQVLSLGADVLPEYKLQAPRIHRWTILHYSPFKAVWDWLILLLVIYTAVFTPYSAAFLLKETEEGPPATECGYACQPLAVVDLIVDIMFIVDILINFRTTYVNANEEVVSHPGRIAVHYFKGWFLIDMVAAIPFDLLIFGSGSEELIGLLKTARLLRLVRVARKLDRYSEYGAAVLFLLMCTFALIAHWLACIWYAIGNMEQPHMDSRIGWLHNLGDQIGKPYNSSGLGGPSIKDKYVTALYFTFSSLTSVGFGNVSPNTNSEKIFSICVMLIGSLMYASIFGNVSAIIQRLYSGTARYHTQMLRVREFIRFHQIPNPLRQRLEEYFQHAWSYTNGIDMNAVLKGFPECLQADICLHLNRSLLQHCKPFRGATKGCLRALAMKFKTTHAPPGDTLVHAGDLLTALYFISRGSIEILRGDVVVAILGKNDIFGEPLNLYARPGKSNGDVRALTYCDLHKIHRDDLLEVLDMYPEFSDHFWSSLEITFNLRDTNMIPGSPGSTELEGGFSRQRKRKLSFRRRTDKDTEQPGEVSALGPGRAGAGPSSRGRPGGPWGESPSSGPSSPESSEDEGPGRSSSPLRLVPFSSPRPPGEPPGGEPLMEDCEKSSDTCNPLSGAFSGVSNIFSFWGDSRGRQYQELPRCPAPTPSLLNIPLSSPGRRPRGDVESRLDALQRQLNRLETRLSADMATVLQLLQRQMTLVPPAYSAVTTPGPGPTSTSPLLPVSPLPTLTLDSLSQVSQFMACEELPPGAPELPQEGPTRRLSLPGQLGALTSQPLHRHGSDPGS

CCN1CCN(c2ccc(Nc3cc(N(C)C(=O)Nc4c(Cl)c(OC)cc(OC)c4Cl)ncn3)cc2)CC1 [Compound 2, 3-(2,6-Dichloro-3,5-dimethoxy-phenyl)-1-{6-[4-(4-ethyl-piperazin-1-yl)-phenylamino]-pyrimidin-4-yl}-1-methyl-urea]
half-life at 1 μM [1]: 35.2 min
microsomal CLint at 1 μM [1]: 39.4 µL/min/mg
CLint Rank [1]: low
pKa1 [2]: 8.2
pKa2 [2]: 3.4
half-life at 1 μM [3]: 3.5 min
microsomal CLint at 1 μM ([3]; read-out: CLint): 395 µL/min/mg
microsomal CLint at 1 μM ([3]; read-out: CLint Rank): > 150 µL/min/mg
half-life at 1 μM [4]: 10.3 min
microsomal CLint at 1 μM ([4]; read-out: CLint): 134 µL/min/mg
microsomal CLint at 1 μM ([4]; read-out: CLint Rank): 50 to 150 µL/min/mg
half-life at 1 μM [5]: 3.8 min
microsomal CLint at 1 μM ([5]; read-out: CLint): 364 µL/min/mg
microsomal CLint at 1 μM ([5]; read-out: CLint Rank): > 150 µL/min/mg
half-life at 1 μM [6]: 15.4 min
microsomal CLint at 1 μM ([6]; read-out: CLint): 90.3 µL/min/mg
microsomal CLint at 1 μM ([6]; read-out: CLint Rank): 50 to 150 µL/min/mg
IC50 (hERG channels): 3 µM
Mechanism (Caco-2 cell monolayers): Passive
Permeability Ranking (Caco-2 cell monolayers): Medium
Papp A→B at 120 min, 10 μM [7]: 1.69 ×10⁻⁶ cm/s
Papp B→A at 120 min, 10 μM [7]: 1.59 ×10⁻⁶ cm/s
efflux ratio at 120 min, 10 μM [7]: 0.94
solubility [8]: 2000 µM (≈ 1120 µg/mL)

CC[N+]1([O-])CCN(c2ccc(Nc3cc(N(C)C(=O)Nc4c(Cl)c(OC)cc(OC)c4Cl)ncn3)cc2)CC1 [Compound 1, N-Oxide of 3-(2,6-Dichloro-3,5-dimethoxy-phenyl)-1-{6-[4-(4-ethyl-piperazin-1-yl)-phenylamino]-pyrimidin-4-yl}-1-methyl-urea]
half-life at 1 μM [1]: 37.4 min
microsomal CLint at 1 μM [1]: 37.1 µL/min/mg
CLint Rank [1]: low
pKa1 [2]: 4.5
pKa2 [2]: 3.2
half-life at 1 μM [3]: 30.1 min
CLint Rank ([3]; 1 μM): low
microsomal CLint at 1 μM ([3]; read-out: CLint): 46.1 µL/min/mg
half-life at 1 μM [4]: 55.2 min
CLint Rank ([4]; 1 μM): low
microsomal CLint at 1 μM ([4]; read-out: CLint): 25.1 µL/min/mg
half-life at 1 μM [5]: 35.7 min
CLint Rank ([5]; 1 μM): low
microsomal CLint at 1 μM ([5]; read-out: CLint): 38.9 µL/min/mg
half-life at 1 μM [6]: 46.8 min
CLint Rank ([6]; 1 μM): low
microsomal CLint at 1 μM ([6]; read-out: CLint): 29.6 µL/min/mg
IC50 (hERG channels): 10.2 µM
Mechanism (Caco-2 cell monolayers): Efflux (Efflux: B-A/A-B ≧3)
Permeability Ranking (Caco-2 cell monolayers): Low
Papp A→B at 120 min, 10 μM [7]: 0.47 ×10⁻⁶ cm/s
Papp B→A at 120 min, 10 μM [7]: 9.51 ×10⁻⁶ cm/s
efflux ratio at 120 min, 10 μM [7]: 20.2
solubility [8]: 700 µM (≈ 404 µg/mL)
